Columns and labels:
[1] = Plasma protein binding, equilibrium dialysis, mouse plasma; format: in vitro ADME; details: pH 7.4, equilibrium dialysis (RED) 4 hours at 37° C., read-out: Plasma protein binding, fu, Mouse
How it was run: (§1)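 Compound at 10 μM in plasma dialysed against 67 mM phosphate buffer pH 7.4 for 4 h at 37° C. in RED device; unbound fraction from buffer and plasma levels by LC-MS/MS. Plasma stability checked in parallel over 4 h at 37° C. versus frozen control.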

[2] = Metabolic stability in human hepatocytes; format: in vitro ADME; details: cryopreserved human hepatocytes, 1 μM compound, 37° C., up to 90 min, read-out: Metabolic stability in hepatocytes, in vitro t1/2, Human
How it was run: (§2)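 Cryopreserved hepatocytes at 1.0×10^6 cells/ml in Williams medium E were incubated with 1 μM compound (final) at 37° C. Samples at 0, 5, 15, 30, 60 and 90 min were quenched with MeCN containing warfarin internal standard and analysed by LC-MS/MS.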

[3] = Metabolic stability in mouse hepatocytes; format: in vitro ADME; details: cryopreserved mouse hepatocytes, 1 μM compound, 37° C., up to 90 min, read-out: Metabolic stability in hepatocytes, in vitro t1/2, Mouse
How it was run: as §2

[4] = target: IMP-1 (Serratia marcescens, UniProt P52699); assay: MBL inhibition, FC-5 fluorescence assay, IMP-1; format: biochemical; details: FC-5 cephalosporin substrate, fluorescence; ranges of obtained pIC50; read-out: pIC50 IMP-1 (converted)
IMP-1, sequence (P52699 19-246, looked up, species assumed): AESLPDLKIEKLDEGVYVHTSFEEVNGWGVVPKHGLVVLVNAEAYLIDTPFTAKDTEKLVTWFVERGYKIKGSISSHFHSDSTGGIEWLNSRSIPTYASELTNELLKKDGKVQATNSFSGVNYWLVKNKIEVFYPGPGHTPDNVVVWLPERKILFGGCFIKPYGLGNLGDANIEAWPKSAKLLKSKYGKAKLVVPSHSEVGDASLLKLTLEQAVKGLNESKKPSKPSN
How it was run: (§3)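 Dose-response fits (log inhibitor vs normalized response, variable slope) used initial reaction rates, each concentration in 4 replicates within the plate. Rates came from fluorophore release at ex 380/em 460 nm as the MBL hydrolyzed FC-5.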

[5] = target: VIM-2 (Escherichia coli, UniProt Q5U7L7); assay: MBL inhibition, FC-5 fluorescence assay, VIM-2; format: biochemical; details: FC-5 cephalosporin substrate, ranges of obtained pIC50, read-out: pIC50 VIM-2 (converted)
How it was run: as §3

[6] = target: NDM-1 (Klebsiella pneumoniae, UniProt C7C422); assay: MBL inhibition, FC-5 fluorescence assay, NDM-1; format: biochemical; details: FC-5 cephalosporin substrate, fluorescence; ranges of obtained pIC50; read-out: pIC50 NDM-1 (converted)
NDM-1, sequence (C7C422 29-270, looked up, species assumed): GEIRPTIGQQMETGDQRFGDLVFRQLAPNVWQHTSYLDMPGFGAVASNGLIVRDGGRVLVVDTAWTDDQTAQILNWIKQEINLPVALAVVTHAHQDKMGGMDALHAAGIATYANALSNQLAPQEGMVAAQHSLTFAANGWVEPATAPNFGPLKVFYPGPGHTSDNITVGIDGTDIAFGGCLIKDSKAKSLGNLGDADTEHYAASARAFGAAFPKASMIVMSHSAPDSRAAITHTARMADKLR
How it was run: as §3

[7] = Plasma protein binding, equilibrium dialysis, human plasma; format: in vitro ADME; details: pH 7.4, equilibrium dialysis (RED) 4 hours at 37° C., read-out: Plasma protein binding, fu, Human
How it was run: as §1

[8] = target: VIM-1 (Pseudomonas aeruginosa, UniProt A0A0F7KYQ8); assay: MBL inhibition, FC-5 fluorescence assay, VIM-1; format: biochemical; details: FC-5 cephalosporin substrate, ranges of obtained pIC50, read-out: pIC50 VIM-1 (converted)
How it was run: as §3

[9] = system: bacteria; assay: Thigh and/or septicaemia mouse model of infection, with meropenem; format: in vivo; details: NMRI mice; single dose with meropenem subcutaneous 1 h after inoculation; endpoint 3 h after treatment initiation
Procedure: Female NMRI mice (5-6 weeks old, 26-30 gram, n=5) were rendered neutropenic via intraperitoneal injection of two doses of cyclophosphamide on day 4 and day 1 before infection. The animals were infected via intramuscular injection of an inoculum containing 10^6 CFU/mL of bacteria in the left thigh. The animals were treated with a single dose of meropenem subcutaneous +/− inhibitor 1 h after inoculation, and animals were either euthanised at the start of treatment or at the study endpoint at 3 h after treatment initiation. Clinical scores were monitored at 1 and 4 hours post inoculation and were in all cases mild or moderate. Thighs were aseptically removed from the animals, homogenised, diluted, and plated for incubation. Bacterial counting was performed after 18-22 h of incubation at 35° C. in ambient air.
Immunocompetent female NMRI mice mice (5-6 weeks old, 26-30 gram, n=5) were inoculated intraperitoneally with 0.5 ml inoculum containing 5×10^5 CFU suspended in 5% porcine mucin.
The animals were treated with a single dose of meropenem subcutaneous+/−metallo-b-lactamase inhibitor intravenous 1 h after inoculation. Animals were either euthanised at the start of treatment or at the study endpoint at 3 h after treatment initiation. Clinical scores were monitored at 1 and 4 hours post inoculation and were in all cases mild or moderate. Mice were anaesthetised anesthetized with a buprenorphine/tiletamine/zolazepam cocktail and bled, then euthanized and the peritoneum flushed with 2 ml sterile 0.9% NaCl and collected. The blood and/or peritoneal flush were serially diluted and plated for incubation. Bacterial counting was performed after 18-22 h of incubation at 35° C. in ambient air.

[10] = system: Acinetobacter baumannii NDM-1; assay: Antibiotic susceptibility testing (MIC), AB NDM-1; format: cell-based; details: agar or broth dilution (CLSI/EUCAST)
Procedure: (§4) Antibiotic susceptibility testing was performed using the agar or broth dilution method, in line with the Clinical and Laboratory Standards Institute (CLSI) and European Committee on Antimicrobial Susceptibility Testing (EUCAST) requirements.

[11] = system: Escherichia coli NDM-7; assay: Antibiotic susceptibility testing (MIC), EC NDM-7; format: cell-based; details: agar or broth dilution (CLSI/EUCAST)
Procedure: as §4

[12] = system: Escherichia coli NDM-1; assay: Antibiotic susceptibility testing (MIC), EC NDM-1; format: cell-based; details: agar or broth dilution (CLSI/EUCAST)
Procedure: as §4

Structure (SMILES)	fraction unbound at 4 h, 10 μM [1]	half-life at 1 μM [2]	half-life at 1 μM [3]	IC50 [4]	IC50 [5]	IC50 [6]	fraction unbound at 4 h, 10 μM [7]	IC50 [8]	Dose required to reduce minim 1 log fold CFU in a thigh and or a sepsis animal model [9]	MIC values AB NDM-1 [10]	MIC values EC NDM-7 [11]	MIC values EC NDM-1 [12]
CC(NC(=O)c1ccc(CN)cc1)c1cccc2c(-c3ccc(CN4CCOCC4)nc3)c(C(=O)O)[nH]c12 (stereo not shown) [IC-11, 7-(1-((4-(Aminomethyl)benzoyl)amino)ethyl)-3-(6-(morpholin-4-ylmethyl)pyridin-3-yl)-1H-indole-2-carboxylic acid]	0.005 to 0.05	> 6.67 h	> 6.67 h	> 10 nM	1 to 10 nM	< 0.1 nM	> 0.25	> 10 nM	B (B = 30-10 mg/kg)	–	–	–
C[C@@H](c1cccc2c(-c3ccc(NS(C)(=O)=O)c(F)c3)c(C(=O)O)[nH]c12)N1C[C@]2(C[C@@H](CN)C2)OC1=O [IC-14, 7-((S)-1-((2S,4r)-2-(Aminomethyl)-6-oxo-5-oxa-7-azaspiro[3.4]octan-7-yl)ethyl)-3-(3-fluoro-4-(methylsulfonamido)phenyl)-1H-indole-2-carboxylic acid]	0.05 to 0.25	> 6.67 h	2.5 to 6.67 h	> 10 nM	0.1 to 1 nM	< 0.1 nM	0.05 to 0.25	0.1 to 1 nM	C (C = 5-10 mg/kg)	B (B MIC values 2 ÷ 8)	A (A = MIC values ≤ 1)	A (A = MIC values ≤ 1)
COc1cc(-c2c(C(=O)O)[nH]c3c([C@H](C)N4C[C@]5(C[C@@H](CN)C5)OC4=O)cccc23)ccn1 [IC-17, 7-((1S)-1-(2-(aminomethyl)-6-oxo-5-oxa-7-azaspiro[3.4]octan-7-yl)ethyl)-3-(2-methoxypyridin-4-yl)-1H-indole-2-carboxylic acid]	0.005 to 0.05	> 6.67 h	2.5 to 6.67 h	> 10 nM	< 0.1 nM	0.1 to 1 nM	0.05 to 0.25	1 to 10 nM	B (B = 30-10 mg/kg)	B (B MIC values 2 ÷ 8)	A (A = MIC values ≤ 1)	A (A = MIC values ≤ 1)
C[C@@H](c1cccc2c(-c3ccnc(O)c3)c(C(=O)O)[nH]c12)N1C[C@]2(C[C@@H](CN)C2)OC1=O [IC-18, 7-((S)-1-((2S,4r)-2-(aminomethyl)-6-oxo-5-oxa-7-azaspiro[3.4]octan-7-yl)ethyl)-3-(2-hydroxypyridin-4-yl)-1H-indole-2-carboxylic acid]	0.005 to 0.05	< 2.5 h	> 6.67 h	> 10 nM	0.1 to 1 nM	0.1 to 1 nM	> 0.25	1 to 10 nM	C (C = 5-10 mg/kg)	B (B MIC values 2 ÷ 8)	A (A = MIC values ≤ 1)	A (A = MIC values ≤ 1)
C[C@@H](c1cccc2c(-c3cncc(O)c3)c(C(=O)O)[nH]c12)N1C[C@]2(C[C@@H](CN)C2)OC1=O [IC-23, 7-((S)-1-((2S,4r)-2-(aminomethyl)-6-oxo-5-oxa-7-azaspiro[3.4]octan-7-yl)ethyl)-3-(5-hydroxypyridin-3-yl)-1H-indole-2-carboxylic acid]	0.005 to 0.05	–	–	> 10 nM	0.1 to 1 nM	1 to 10 nM	0.05 to 0.25	1 to 10 nM	C (C = 5-10 mg/kg)	B (B MIC values 2 ÷ 8)	A (A = MIC values ≤ 1)	A (A = MIC values ≤ 1)
C[C@@H](c1cccc2c(-c3cc[nH]c(=O)c3)c(C(=O)O)[nH]c12)n1cc(CN2CC(N)C2)oc1=O [IC-54, 7-[(1S)-1-{5-[(3-Aminoazetidin-1-yl)methyl]-2-oxo-2,3-dihydro-1,3-oxazol-3-yl}ethyl]-3-(2-oxo-1,2-dihydropyridin-4-yl)-1H-indole-2-carboxylic acid]	> 0.25	–	–	> 10 nM	1 to 10 nM	0.1 to 1 nM	> 0.25	> 10 nM	C (C = 5-10 mg/kg)	B (B MIC values 2 ÷ 8)	A (A = MIC values ≤ 1)	A (A = MIC values ≤ 1)
C[C@H](NC(=O)c1ccc(CN)cc1)c1cccc2c(-c3ccc(CN4CCOCC4)nc3)c(C(=O)O)[nH]c12 [IC-59, 7-((1S)-1-((4-(aminomethyl)benzoyl)amino)ethyl)-3-(6-(morpholin-4-ylmethyl)pyridin-3-yl)-1H-indole-2-carboxylic acid]	–	–	–	> 10 nM	< 0.1 nM	< 0.1 nM	–	> 10 nM	B (B = 30-10 mg/kg)	A (A = MIC values ≤ 1)	A (A = MIC values ≤ 1)	A (A = MIC values ≤ 1)
CC(C)c1cccc2c(-c3cc(Cl)cc(Cl)c3)c(C(=O)O)[nH]c12 [Prior Art Compound 76, reference compound]	< 0.005	< 2.5 h	< 2.5 h	> 10 nM	0.1 to 1 nM	1 to 10 nM	< 0.005	> 10 nM	A (A = >100 mg/kg)	–	–	–

— US20240246913A1, “2-CARBOXYL-INDOLE INHIBITORS OF METALLO-BETA-LACTAMASES” (Oxford University Innovation Limited, priority 2021, published 2024)
